This note sets out measurements from patent publication US5149845A, “Extractants for the separation of transition and related metal ions” (Yeda Research and Development Co. Ltd., priority 1988, dated 1992).

Series [1] in a line: octanol saline (1:1) partition. It counts as physicochemical. The settings on record: read-out: Partition Coefficients (converted). An excerpt:
Partition coefficients relate to octanol saline (1:1) partition

Series [2] can be described thus: selective extraction and transport from an equimolar mixture of six bivalent metal ions through a CHCl3 bulk membrane (U-tube, ion chromatography). On the procedure:
Several of the ion binders, when incorporated into bulk membranes, selectively extract and transport a specific metal ion from a plurality of cations. An example is the quantitative separation of Cu^2+ from a mixture of six two-valent metal ions. This is illustrated by the quantitative removal of Cu^2+ from an equimolar mixture (10 mM each) of Pb^2+, Cu^2+, Cd^2+, Co^2+, Zn^2+ and Ni^2+ in water.

Series [3] is described as follows: removal of Zn^2+ from an equimolar mixture of Zn^2+ and Cd^2+ (ion chromatography). The note with it: 20 mM each Zn^2+ and Cd^2+; 3.0 mM carrier in chloroform.
The nature of series [4]: removal of Cu^2+ from an equimolar mixture of Cu^2+ and Fe^3+. The settings on record: 3 mM each Cu^2+ and Fe^3+, 6 mM citric acid, pH 6.8 with KOH; 4.5 mM carrier in chloroform; receiver 3 mM DTPA at pH 2. On the procedure: A third example is the removal of Cu^2+ from an equimolar mixture of Cu^2+ and Fe^3+ (3 mM each in the presence of 6 mM citric acid titrated to pH 6.8 with KOH) with less than 10% contamination of Fe^3+, by using a carrier (n=2, m=0, q=0, R^1 =CH3) 4.5 mM concentration in chloroform and in the receiver phase 3 mM DTPA at pH2.

For `CCOC(=O)CCN(O)C(=O)COCC(C)(C)COCC(=O)N(O)CCC(=O)OCC`, the logP in series [1] is 0.5. `CC(C)CC(NC(=O)COCC(C)(C)COCC(=O)NC(CC(C)C)C(=O)N(C)O)C(=O)N(C)O` (stereo not drawn): the logP in series [1] is 0.568.

In the case of `CC(C)C[C@H](NC(=O)CCOCC(C)(C)COCCC(=O)N[C@@H](CC(C)C)C(=O)N(C)O)C(=O)N(C)O`, in series [2] (10 mM each of Pb^2+, Cu^2+, Cd^2+, Co^2+, Zn^2+, Ni^2+ in water, 0.3 mM carrier in CHCl3, receiver 0.1 M H2SO4), the “removal of Cu^2+ from equimolar mixture” value is “quantitatively removed”. In addition, the “contamination by other metals” value in series [2] (10 mM each of six metal ions, 0.3 mM carrier in CHCl3, receiver 0.1 M H2SO4, DIONEX ion chromatography) was “without a trace of contamination by other metals”. Further, in series [2] (after 160 hours, equimolar mixture of six cations (FIG. 1B)), the “metal content of receiver arm after extraction” value was “containing only Cu^2+”. In addition, the “contamination of Cd^2+ on removal of Zn^2+” value in series [3] is “without any contamination of Cd^2+”. In series [1], the logP is 1.2.

For the compound `CN(O)C(=O)COCC(C)(C)COCC(=O)N(C)O` [q = 0, n=1, R^1=M, R^2=Me, R^3=Me], the logP in series [1] was 0.352. With `CCCC(C)(COCC(=O)N(C)O)COCC(=O)N(C)O` [q = 0, n=1, R^1=Me, R^2=Me, R^3=Pr], the logP in series [1] was 0.29. On to `CN(O)C(=O)CCOCC(C)(C)COCCC(=O)N(C)O` [q = 0, n=2, R^1=Me, R^2=Me, R^3=Me], for which the “contamination of Fe^3+ on removal of Cu^2+” value in series [4] was “less than 10%”. In addition, in series [1], the logP was -0.0862.

For the compound `CC(NC(=O)COCC(C)(C)COCC(=O)NC(C)C(=O)N(C)O)C(=O)N(C)O` (stereo not drawn) [q = 1, n=1, R=Me, R^1=Me, R^2=Me, R^3=Me], in series [1], the logP was 0.29.
